Test results as given in US8354102B2, “Antibodies directed to mGluR7” (Hoffmann-La Roche Inc., priority 2007, dated 2013).
In the oligonucleotide strings, read from the 5' end, every base follows the letter of its sugar. An asterisk marks phosphorothioate; unmarked linkages are phosphodiester. Other units and linkages are bracketed, terminal groups are in braces. A string of capitals states the bases alone. [C6SSC6] = C6-disulfide-C6 linker; {Cy5} = Cy5 fluorescent dye label; d = 2'-deoxy (DNA); m = 2'-O-methyl; r = 2'-OH (RNA)

Assays:
[1] = tested on: p44/42 MAPK (Thr202/Tyr204) in CHO cells expressing mGlu7 receptors; test: p44/42 MAPK activities (PathScan Sandwich ELISA) in CHO cells expressing mGlu7 receptors; format: cell-based, rat; conditions: 5 minutes stimulation; FIG. 8C
Description: Cells stably expressing the rat mGluR7 receptor are seeded in growth medium in 6 well plates. The next day, medium is replaced with 2 ml starvation medium (Opti-MEM with 0.1% fatty acid free BSA). The following day cells are stimulated with compound in 150 μl starvation medium for the indicated times at 37° C., otherwise cells are stimulated for 5 minutes. Cells are washed with ice cold PBS and lyzed in 150 ul buffer containing 1 mM β-glycerophosphate 1 mM EDTA, 1 mM EGTA, 1 μg/ml leupeptin, 150 mM sodium chloride, 2.5 mM sodium phosphate, 20 mM Tris-Cl, 1 mM PMSF and 1% Triton X-100, scraped off and sonicated on ice. After centrifugation the supernatant is analyzed for p44/42 MAPK activities using the PathScan™ Sandwich ELISA kit according to instructions of the manufacturer. Absorbance ([…]) is read using the EnVision reader (Perkin Elmer).

rat mGlu7a receptor = molecular target: T1, rat mGlu7a receptor (Rattus norvegicus, UniProt P35400); test: CRE-luciferase reporter gene assay in rat mGlu7a transfected CHO clones; format: cell-based; conditions: 1 μM forskolin and 0.5 mM L-AP4, 4 h; responses across clones ranged from no depression to this maximum
T1 construct: expressed in transfected cells
Text: The cDNA of the rat mGlu7a receptor splice variant (Genbank: D16817) was inserted into a eukaryotic expression vector pcDNA3.1(+). This plasmid was transfected into CHO cells deficient in dihydrofolate reductase activity (CHO-dhfr^−) harboring a luciferase reporter gene under the control of 5 cAMP-responsive elements (CRE) using Lipofectamine plus according to the instruction of the manufacturer. Clones were isolated through limited dilutions and identified by activities in the reporter gene assay. Cells were stimulated with 1 μM forskolin and 0.5 mM L-AP4 in the assay buffer. After 4 h the supernatant was exchanged with lysis buffer and the luciferase activity measured. Responses ranged from no depression to about 83% depression. A clonal cell line displaying the greatest inhibition of forskolin-mediated luciferase activity was selected and identified as giving consistently good responses for up to at least 20 passages.

rat mGluR7 receptor = molecular target: T2, rat mGluR7 receptor (Rattus norvegicus, UniProt P35400); test: Antibody mediated cellular uptake of siRNA-Cy5 in mGluR7 expressing CHO cells; format: cell-based; conditions: mix of 67 nM primary antibody and 20 nM siRNA-Cy5, 37° C., 40 minutes; FIG. 5 E-H
T2 construct: expressed in transfected cells
Description: The experiment was carried out according to the protocol, with the following modifications: The cells were incubated with 67 nm primary antibody conjugated to siRNA-Cy5 (Molar ratio 1 to 0.3) or a mix of 67 nM primary antibody and 20 nM siRNA-Cy5 at 37° C. for 40 minutes. The secondary antibody used for detection of cell surface primary immunostaining was labelled with Alexa488 and the secondary antibody used for detection of whole cell primary immunostaining was labelled with Alexa532. The Trueblue and hoechst staining of the cytoplasm was replaced with a staining step following the formaldehyde fixation, where the samples where incubated with 3 uM Hoechst and 2 μg/ml CellmaskBlue in PBS for 15 minutes at roomtemperature followed by a second fixation with 4% formaldehyde for 15 minutes at roomtemperature.
Each row contains images acquired in parallel of the same field of view in the well. Panel A-D is with primary antibody labelled with siRNA-Cy5, panel E-H with primary antibody mixed with siRNA-Cy5.

T1 sequence (P35400 35-915): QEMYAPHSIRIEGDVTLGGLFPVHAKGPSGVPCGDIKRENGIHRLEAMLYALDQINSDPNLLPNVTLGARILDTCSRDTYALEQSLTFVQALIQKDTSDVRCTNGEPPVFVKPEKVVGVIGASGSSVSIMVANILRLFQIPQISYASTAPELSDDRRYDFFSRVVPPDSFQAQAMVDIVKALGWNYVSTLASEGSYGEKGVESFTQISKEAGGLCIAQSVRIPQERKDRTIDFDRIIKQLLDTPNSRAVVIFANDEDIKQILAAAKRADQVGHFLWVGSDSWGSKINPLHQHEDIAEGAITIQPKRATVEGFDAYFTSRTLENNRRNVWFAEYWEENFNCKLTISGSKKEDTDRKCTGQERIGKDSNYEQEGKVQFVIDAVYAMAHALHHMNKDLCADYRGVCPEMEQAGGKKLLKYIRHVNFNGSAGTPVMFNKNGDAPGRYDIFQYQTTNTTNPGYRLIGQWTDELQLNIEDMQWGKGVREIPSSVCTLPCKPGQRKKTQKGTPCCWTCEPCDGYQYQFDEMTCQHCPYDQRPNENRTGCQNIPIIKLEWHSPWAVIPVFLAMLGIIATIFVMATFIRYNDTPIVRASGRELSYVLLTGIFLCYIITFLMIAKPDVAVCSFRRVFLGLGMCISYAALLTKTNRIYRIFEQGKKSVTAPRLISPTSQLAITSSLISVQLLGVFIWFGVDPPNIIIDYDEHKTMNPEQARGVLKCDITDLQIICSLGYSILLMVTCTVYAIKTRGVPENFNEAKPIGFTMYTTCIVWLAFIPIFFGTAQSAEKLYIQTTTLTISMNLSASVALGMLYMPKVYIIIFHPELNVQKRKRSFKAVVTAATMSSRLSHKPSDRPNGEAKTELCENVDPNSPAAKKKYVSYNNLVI
T2 sequence (P35400 35-915): as above

Row | Compound | triggering of increases of p44/42 MAPK activities (specificity) [1] | depression of forskolin-mediated luciferase activity (rat mGlu7a receptor) | internalization without a covalent link between IgG and siRNA (rat mGluR7 receptor)
1 | Cl.Cl.c1ccc(C(NCCNC(c2ccccc2)c2ccccc2)c2ccccc2)cc1 [AMN082, Dibenzhydrylethane-1,2-diamine dihydrochloride] | do not trigger increases | – | –
2 | NC(CCP(=O)(O)O)C(=O)O [L-AP4] | do not trigger increases | about 83% | –
3 | siRNA: Cy5 labeled siRNA, sense SEQ ID NO: 1 with C6SSC6 linker, antisense SEQ ID NO: 2; tested mixed with IgG (sense {Cy5}-mCmUmUrAmCrGmCmUrGrArGmUrAmCmUmUmCrGrAdTdT[C6SSC6]dT; antisense rUrCrGrArArGmUrArCrUmCrArGrCrGmUrArArGdT*dT) | – | – | only the IgG is internalized
